From PMC11819603, “Development of a reliable, sensitive, and convenient assay for the discovery of new eIF5A hypusination inhibitors” (PLOS ONE, 2025)

Legend:
DHPS [1] = target: T1, DHPS (Homo sapiens, UniProt P49366); assay: Hyp'Assay without DOHH: deoxyhypusination of eIF5A revealed with Hpu98 antibody; type: biochemical; conditions: 5 μM spermidine
T1 construct: host or cells: E. coli BL21 (DE3)
T1 sequence (P49366 1-369): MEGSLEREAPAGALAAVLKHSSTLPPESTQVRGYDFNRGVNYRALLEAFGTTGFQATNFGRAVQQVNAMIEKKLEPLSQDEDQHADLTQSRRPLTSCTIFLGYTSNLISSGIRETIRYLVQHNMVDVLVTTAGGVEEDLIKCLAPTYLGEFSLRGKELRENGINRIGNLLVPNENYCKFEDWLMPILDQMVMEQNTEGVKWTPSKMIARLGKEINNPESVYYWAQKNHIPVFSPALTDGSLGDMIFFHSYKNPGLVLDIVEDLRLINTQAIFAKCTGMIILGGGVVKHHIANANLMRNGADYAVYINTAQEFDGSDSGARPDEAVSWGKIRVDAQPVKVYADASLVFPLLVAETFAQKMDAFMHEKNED
From the text: To address this issue, we compared the ability of GC7 to inhibit DHPS or DOHH by adding GC7 during the first step of the Hyp’Assay; when DHPS mediates the deoxyhypusination reaction (Fig 2A), or only during the second step, when DOHH hydroxylate deoxyhypusinated eIF5A. […] This confirms the specificity of GC7 towards DHPS. When finding new hypusination inhibitors adding them during the first or the second step of the Hyp’Assay will allow us to determine if the inhibition affects DHPS or DOHH. Another way to discriminate between DHPS or DOHH inhibitors would be to use Hpu98, an antibody that recognized both hypusinated and deoxyhypusinated eIF5A, instead of Hpu24, which is specific for hypusinated eIF5A [18]. […] We performed a new Hyp’Assay by omitting DOHH in the reaction mix and using the Hpu98 antibody. First, we performed a dose response experiment with spermidine at pH: 8.0 and 9.0 (Fig 3E). The Hyp’Assay allows the detection of deoxyhypusinated eIF5A in a spermidine-dependent manner. Under these conditions, deoxyhypusination was equally efficient at both pH tested. […] We also tested the ability of GC7 (Fig 3F) and CPX or EDTA (Fig 3G) to inhibit DHPS. […] This provided us with another method to distinguish between DHPS and DOHH inhibitors.
(§1) The cell-free reaction described in 4.4 is performed in triplicates in a 96-wells plate (MaxiSorp, ThermoFisher) in the presence of 3 μg of eIF5A, 2 μg of DHPS, and 2 μg of DOHH by well. The reaction product, hypusinated eIF5A, is adsorbed onto the plate overnight at 4°C. The plate is washed (100 μL/well) thrice with PBS-T (PBS– 0.05% Tween20), then saturated with 1% non-fat dry milk in PBS-T for 2 h at room temperature. The plate is washed thrice with PBS-T and incubated overnight at 4°C with the anti-hypusine antibody (1:2000 in saturation buffer, 50 μL/well). The next day and after 5 washes with PBS-T, HRP-coupled anti-rabbit secondary antibody diluted 1:5000 in saturation buffer (50 μL/well) is added for 2 h at room temperature.

DHPS [2] = target: T1, DHPS; assay: Hyp'Assay: cell-free eIF5A hypusination in 96-well plates (recombinant eIF5A, DHPS, DOHH; anti-hypusine antibody Hpu24), substance present in the DHPS step; type: biochemical
Description: The principle of the Hyp’Assay (Fig 2A) is to perform eIF5A hypusination reaction in 96-well plates, allow eIF5A to adsorb to the plate, incubate with an anti-hypusine antibody and a secondary antibody conjugated to HRP and reveal hypusination using TMB as a substrate.
[…] Then 10 μL containing 1 μg of DOHH with 10 μM Fe^2+ (H8FeN2O8S2^. 6H2O) were added. After 1 h proteins were analyzed by Western Blot using antibodies toward DHPS, DOHH, Hypusine, and eIF5A.
as §1

Compound: N=C(N)NCCCCCCCN [GC7, N1-guanyl-1,7-diaminoheptane]
- ability to inhibit deoxyhypusination (DHPS [1]): efficient in inhibiting deoxyhypusination
- Relative deoxyhypusination of eIF5A, Mean (quantification from Figure 3F, 3G) (DHPS [1]; CTRL 100,0, inhibitor concentration not given): 7,531 a.u
- concentration at which inhibition was complete (DHPS [2]; 5 μM spermidine): 1 µM
- concentration at which inhibition was detectable (DHPS [2]; 5 μM spermidine): 0.01 µM
- concentration at which the inhibitory effect began (DHPS [2]; 100 μM spermidine): 0.1 µM
- concentration of maximal inhibitory effect (DHPS [2]; 100 μM spermidine): 10 µM
- Relative hypusination of eIF5A, Mean (quantification from Figure 3D) (DHPS [2]; GC7 added during the DHPS step, 5 μM spermidine, CTRL 100,0): 4,227 a.u
- hypusination signal, Mean (quantification from Figure 3A) (DHPS [2]; Spermidine 5 µM, GC7 1 (µM)): 54.02
- hypusination signal, Mean (quantification from Figure 3A) (DHPS [2]; Spermidine 5 µM, GC7 10 (µM)): 19.57
- hypusination signal, Mean (quantification from Figure 3A) (DHPS [2]; Spermidine 5 µM, GC7 100 (µM)): 16.79
- hypusination signal, Mean (quantification from Figure 3A) (DHPS [2]; Spermidine 5 µM, GC7 1000 (µM)): 0.5077
- hypusination signal, Mean (quantification from Figure 3A) (DHPS [2]; Spermidine 5 µM, GC7 10000 (µM)): 0
- hypusination signal, Mean (quantification from Figure 3A) (DHPS [2]; Spermidine 100 µM, GC7 1 (µM)): 100
- hypusination signal, Mean (quantification from Figure 3A) (DHPS [2]; Spermidine 100 µM, GC7 10 (µM)): 95.15
- hypusination signal, Mean (quantification from Figure 3A) (DHPS [2]; Spermidine 100 µM, GC7 100 (µM)): 91.8
- hypusination signal, Mean (quantification from Figure 3A) (DHPS [2]; Spermidine 100 µM, GC7 1000 (µM)): 51.9
- hypusination signal, Mean (quantification from Figure 3A) (DHPS [2]; Spermidine 100 µM, GC7 10000 (µM)): 0.07615
- effect on hypusination (DHPS [2]; added during the first step (DHPS), 5 μM spermidine): total inhibition of hypusination
- inhibition at 1 µM (DHPS [2]; at 1 µM, 5 µM spermidine (reviewer's reading of Fig. 3)): ~95%
